Data set [1] deals with T1, human glycogen phosphorylase a (Homo sapiens, UniProt P06737).
T1 sequence (P06737 1-847): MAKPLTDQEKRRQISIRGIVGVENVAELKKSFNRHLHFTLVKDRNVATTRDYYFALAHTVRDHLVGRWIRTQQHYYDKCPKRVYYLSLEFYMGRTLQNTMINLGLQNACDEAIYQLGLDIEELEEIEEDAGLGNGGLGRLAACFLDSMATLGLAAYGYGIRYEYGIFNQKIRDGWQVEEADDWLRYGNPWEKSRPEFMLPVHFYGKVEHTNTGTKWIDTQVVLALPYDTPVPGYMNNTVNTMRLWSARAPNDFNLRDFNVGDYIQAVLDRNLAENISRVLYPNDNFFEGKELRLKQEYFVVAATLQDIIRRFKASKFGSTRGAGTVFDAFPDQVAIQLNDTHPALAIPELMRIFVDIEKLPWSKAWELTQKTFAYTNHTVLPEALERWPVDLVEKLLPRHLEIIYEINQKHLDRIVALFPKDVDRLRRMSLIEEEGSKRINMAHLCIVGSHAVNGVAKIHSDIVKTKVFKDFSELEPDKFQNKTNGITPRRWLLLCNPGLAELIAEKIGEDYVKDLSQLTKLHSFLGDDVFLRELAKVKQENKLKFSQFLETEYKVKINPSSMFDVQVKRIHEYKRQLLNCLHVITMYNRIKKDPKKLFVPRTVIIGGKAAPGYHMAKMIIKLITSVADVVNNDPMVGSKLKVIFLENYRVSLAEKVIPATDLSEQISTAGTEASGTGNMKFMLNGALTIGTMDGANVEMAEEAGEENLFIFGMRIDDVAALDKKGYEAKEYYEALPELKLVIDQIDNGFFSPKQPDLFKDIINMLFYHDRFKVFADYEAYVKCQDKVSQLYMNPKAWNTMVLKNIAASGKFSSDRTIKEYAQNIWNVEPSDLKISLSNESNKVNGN
The data set can be described thus: Glycogen phosphorylase a activity assay. Format: biochemical. To be noted: inhibition of GPa measured in reverse direction (glycogen synthesis from glucose 1-phosphate, liberated phosphate, absorption 820 nm). As to the method: Glycogen Phosphorylase a Activity Assay
The effect of compounds on the activity of the active form of glycogen phosphorylase (GPa) was measured in the reverse direction by following the synthesis of glycogen from glucose 1-phosphate by determining the liberation of inorganic phosphate. All the reactions were carried out as duplicate determinations in microtiter plates with 96 wells (Half Area Plates, Costar No 3696), measuring the change in absorption owing to the formation of the reaction product at the wavelength specified hereinafter in a Multiskan Ascent Elisa Reader (Lab Systems, Finland).
In order to measure the GPa enzymic activity in the reverse direction, the general method of Engers et al. (Engers H D, Shechosky S, Madsen N B, Can J Biochem 1970 July;48(7):746-754) was used to measure the conversion of glucose 1-phosphate into glycogen and inorganic phosphate, with the following modifications: human glycogen phosphorylase a (for example with 0.76 mg of protein/ml (Aventis Pharma Deutschland GmbH), dissolved in buffer solution E (25 mM β-glycerophosphate, pH 7.0, 1 mM EDTA and 1 mM dithiothreitol) was diluted with buffer T (50 mM Hepes, pH 7.0, 100 mM KCl, 2.5 mM EDTA, 2.5 mM MgCl2.6H2O) and addition of 5 mg/ml glycogen to a concentration of 10 μg of protein/ml. Test substances were prepared as 10 mM solution in DMSO and diluted to 50 μM with buffer solution T. To 10 μl of this solution were added 10 μl of 37.5 mM glucose, dissolved in buffer solution T, and 5 mg/ml glycogen, plus 10 μt of a solution of human glycogen phosphorylase a (10 μg of protein/ml) and 20 μl of glucose 1-phosphate, 2,5 mM. The baseline glycogen phosphorylase a activity in the absence of test substance was determined by adding 10 μl of buffer solution T (0.1% DMSO). The mixture was incubated at room temperature for 40 minutes, and the liberated […] was measured by the general method of Drueckes et al. (Drueckes P, Schinzel R, Palm D, Anal Biochem 1995 Sep. 1;230(1):173-177) with the following modifications: 50 μl of a stop solution of 7.3 mM ammonium molybdate, 10.9 mM zinc acetate, 3.6% ascorbic acid, 0.9% SDS are added to 50 μl of the enzyme mixture. After incubation at 45° C. for 60 minutes, the absorption at 820 nm was measured. To determine the background absorption, in a separate mixture the stop solution was added immediately after addition of the glucose 1-phosphate solution. […]

The structures appear in SMILES notation.

In the case of `O=C(NC(=O)c1cc(F)c(F)cc1Cl)Nc1ccccc1C(=O)N1CCC[C@@H]1C(=O)O` [Example 1, R-1-{2-[3-(2-Chloro-4,5-difluorobenzoyl)ureido]benzoyl}pyrrolidine-2-carboxylic acid], the melting point (in general, the temperature, or range, at which the solid turns liquid) was 123.5 °C. Moreover, in data set [1], the IC50 (commonly the midpoint of a concentration-inhibition curve) was determined as 30 nM.

For the compound `O=C(NC(=O)c1cc(F)c(F)cc1Cl)Nc1ccccc1C(=O)N1CCC[C@H]1C(=O)O` [Example 2], the melting point came to 128.4 °C. For the same compound, the IC50 in data set [1] came out at 2100 nM.

`O=C(NC(=O)c1cc(F)c(F)cc1Cl)Nc1ccccc1C(=O)N1CCCC1C(=O)O` (stereo not shown) [Example 3] returned a melting point of 193.1 °C. Also, the IC50 in data set [1] turned out to be 120 nM.

As to `COC(=O)[C@H]1CCCN1C(=O)c1ccccc1NC(=O)NC(=O)c1cc(F)c(F)cc1Cl` [Example 4], in data set [1], the IC50 is 570 nM.

As to `O=C(NC(=O)c1cc(F)c(F)cc1Cl)Nc1ccccc1C(=O)N1CCC1C(=O)O` (stereo not shown) [Example 5], the melting point was 99 °C. Further, the IC50 in data set [1] was found to be 30 nM.

The compound `O=C(NC(=O)c1cc(F)c(F)cc1Cl)Nc1ccccc1C(=O)N1CC(F)(F)CC1C(=O)O` (stereo not shown) [Example 6] had a melting point of 102 °C. Also, in data set [1], the IC50 was 1400 nM.

Compound `O=C(NC(=O)c1cc(F)c(F)cc1Cl)Nc1ccccc1C(=O)N1C2CCCCC2C[C@H]1C(=O)O` (stereo partly shown) [Example 7] returned a melting point of 125 °C. For the same compound, the IC50 in data set [1] was found to be 4000 nM.
